Where a SMILES comes first, the peptide text is derived from it. Bridges are numbered along the chain shown (N, C = ends). [ ]: non-standard residue; d: D form. The star is where a group is joined. ξ: configuration not given here. Phe(4-COOH) = N[C@@H](Cc1ccc(C(=O)O)cc1)C(=O)O; Bip = N[C@@H](Cc1ccc(-c2ccccc2)cc1)C(=O)O; Phe(3-Me) = Cc1cccc(C[C@H](N)C(=O)O)c1; Val(3-OH) = CC(C)(O)[C@H](N)C(=O)O; aIle = CC[C@@H](C)[C@H](N)C(=O)O; hArg = N=C(N)NCCCC[C@H](N)C(=O)O; 4Pal = N[C@@H](Cc1ccncc1)C(=O)O; Cha = N[C@@H](CC1CCCCC1)C(=O)O; Cit = NC(=O)NCCC[C@H](N)C(=O)O; Ile(3ξ) = CCC(C)[C@H](N)C(=O)O; dCha = N[C@H](CC1CCCCC1)C(=O)O; Thr(3ξ) = CC(O)[C@H](N)C(=O)O; dNle = CCCC[C@@H](N)C(=O)O; Carboxymethyl = O=C(O)C*; NMeA = CN[C@@H](C)C(=O)O; Orn = NCCC[C@H](N)C(=O)O; Pra = C#CC[C@H](N)C(=O)O; Dab = NCC[C@H](N)C(=O)O; Dap = NC[C@H](N)C(=O)O
What follows are molecules tested against T1, human PD-1 / PD-L1-Ig binding on Jurkat cell line over-expressing human PD-1 (Jurkat-PD-1) (Homo sapiens, UniProt Q15116) (assay: Jurkat-PD-1 Cell Binding High-Content Screening Assay (CBA)). Settings: Jurkat HPD1_PDL1 IC50, Jurkat-PD-1 cells, PE-labeled PD-L1-Ig 20 nM final.
T1 construct: expressed in transfected cells; host or cells: Jurkat
T1 sequence (Q15116 25-288): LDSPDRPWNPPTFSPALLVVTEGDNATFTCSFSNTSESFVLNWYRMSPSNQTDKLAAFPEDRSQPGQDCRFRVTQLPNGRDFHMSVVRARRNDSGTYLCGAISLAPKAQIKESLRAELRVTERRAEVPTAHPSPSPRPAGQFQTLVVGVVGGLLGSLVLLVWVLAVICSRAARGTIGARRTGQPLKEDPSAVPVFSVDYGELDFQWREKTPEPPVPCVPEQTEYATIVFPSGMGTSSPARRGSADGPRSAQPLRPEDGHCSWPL
Type: cell-based
Summary of the method: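 Binding of fluorescent PD-L1-Ig (phycoerythrin linked via the Ig tag, 20 nM final) to PD-1-overexpressing Jurkat cells was imaged after a 2 h, 37° C compound pretreatment and 1 hour ligand incubation.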
With `CC(C)C[C@H]1NC(=O)[C@H](CCCN)NC(=O)[C@H](CN)NC(=O)[C@H](Cc2ccc(-c3ccccc3)cc2)NC(=O)[C@H](C(C)C)NC(=O)[C@H](Cc2c[nH]c3ccccc23)NC(=O)[C@H](CC(=O)O)NC(=O)[C@H](Cc2ccc(OCC(=O)O)cc2)NC(=O)[C@H](Cc2ccncc2)NC(=O)CSC[C@@H](C(=O)N[C@@H](C)C(N)=O)NC(=O)[C@H]([C@@H](C)O)NC(=O)[C@H](C(C)C)NC(=O)[C@H](CC2CCCCC2)NC(=O)[C@H](CCN)NC1=O` [Compound 1372] the IC50 was 12.6 nM.

Same assay, conditions: Jurkat-PD-1 cells, PE-labeled PD-L1-Ig 20 nM final; read-out: Jurkat HPD1_PDL1 IC50
Molecule `CC[C@@H](C)[C@@H]1NC(=O)[C@H](Cc2ccc(-c3ccccc3)cc2)NC(=O)[C@H](C(C)C)NC(=O)[C@H](Cc2c[nH]c3ccccc23)NC(=O)[C@H](CC(=O)O)NC(=O)[C@H](Cc2ccc(OCC(=O)O)cc2)NC(=O)[C@H](CN)NC(=O)CSC[C@@H](C(=O)N[C@@H](C)C(N)=O)NC(=O)[C@H]([C@@H](C)O)NC(=O)[C@H](C(C)C)NC(=O)[C@H](CC2CCCCC2)NC(=O)[C@H](CCN)NC(=O)[C@@H](CC2CCCCC2)NC(=O)[C@H](CCCN)NC1=O` [Compound 1627] ({CH2CO}-[Dap]Y(Carboxymethyl)DWV[Bip][aIle][Orn][dCha][Dab][Cha]VTCA-NH2; thioether N-14) has an IC50 of 19.3 nM.
`CC(C)C[C@@H]1NC(=O)[C@H](CCCCN)NC(=O)[C@@H](CC(C)C)NC(=O)[C@H](CCCN)NC(=O)[C@H](C(C)C)NC(=O)[C@H](Cc2ccc(-c3ccccc3)cc2)NC(=O)[C@H](C(C)C)NC(=O)[C@H](Cc2c[nH]c3ccccc23)NC(=O)[C@H](CC(=O)O)NC(=O)[C@H](Cc2ccc(O)cc2)NC(=O)[C@H](CC(N)=O)NC(=O)CSC[C@@H](C(=O)N[C@@H](C)C(N)=O)NC(=O)[C@H](CO)NC(=O)[C@H](C(C)C)NC1=O` [Compound 1132] ({CH2CO}-NYDWV[Bip]V[Orn][dL]KLVSCA-NH2; thioether N-14) was tested, and the IC50 was 20.7 nM.
`CC(C)C[C@H]1NC(=O)[C@H](CCCN)NC(=O)[C@H](C(C)C)NC(=O)[C@H](Cc2ccc(-c3ccccc3)cc2)NC(=O)[C@H](C(C)C)NC(=O)[C@H](Cc2c[nH]c3ccccc23)NC(=O)[C@H](CC(=O)O)NC(=O)[C@H](Cc2ccc(OCC(=O)O)cc2)NC(=O)[C@H](CCCCNC(=N)N)NC(=O)CSC[C@@H](C(=O)N(C)[C@@H](C)C(N)=O)NC(=O)[C@H](CO)NC(=O)[C@H](C(C)C)NC(=O)[C@H](CC2CCCCC2)NC(=O)[C@H](CCN)NC1=O` [Compound 2569] ({CH2CO}-[hArg]Y(Carboxymethyl)DWV[Bip]V[Orn][dL][Dab][Cha]VSC[NMeA]-NH2; thioether N-14) showed an IC50 of 18.5 nM.
`CC(C)C[C@H]1NC(=O)[C@H](CCCN)NC(=O)[C@H](C(C)C)NC(=O)[C@H](Cc2ccc(-c3ccccc3)cc2)NC(=O)[C@H](C(C)C)NC(=O)[C@H](Cc2c[nH]c3ccccc23)NC(=O)[C@H](CC(=O)O)NC(=O)[C@H](Cc2ccc(OCC(=O)O)cc2)NC(=O)[C@H](CN)NC(=O)CSC[C@@H](C(=O)N[C@@H](C)C(N)=O)NC(=O)[C@H]([C@@H](C)O)NC(=O)[C@H](C(C)C)NC(=O)[C@H](CC2CCCCC2)NC(=O)[C@H]([C@@H](C)O)NC1=O` [Compound 1524] ({CH2CO}-[Dap]Y(Carboxymethyl)DWV[Bip]V[Orn][dL]T[Cha]VTCA-NH2; thioether N-14) was tested, and the IC50 was 9.2 nM.
In the case of `CC(C)C[C@@H]1NC(=O)[C@H](Cc2c[nH]c3ccccc23)NC(=O)[C@H](CC(=O)O)NC(=O)[C@H](Cc2ccncc2)NC(=O)[C@H](Cc2ccc(OCC(=O)O)cc2)NC(=O)CSC[C@@H](C(=O)NCC(N)=O)NC(=O)[C@H](CO)NC(=O)[C@H](C(C)C)NC(=O)[C@H](CC(C)C)NC(=O)[C@H](CC(N)=O)NC(=O)[C@@H](CC(C)C)NC(=O)[C@H](CCN)NC(=O)[C@H](C(C)C)NC(=O)[C@H](Cc2ccc(-c3ccccc3)cc2)NC1=O` [Compound 1282] ({CH2CO}-Y(Carboxymethyl)[4Pal]DWL[Bip]V[Dab][dL]NLVSCG-NH2; thioether N-14), the IC50 is reported as 11.8 nM.
With `CCC(C)[C@@H]1NC(=O)[C@H](Cc2ccc(-c3ccccc3)cc2)NC(=O)[C@H](C(C)C)NC(=O)[C@H](Cc2cccc(C)c2)NC(=O)[C@H](CC(=O)O)NC(=O)[C@H](Cc2ccc(-c3cccc(C(=O)O)c3)cc2)NC(=O)[C@H](Cc2ccccc2)NC(=O)CSC[C@@H](C(=O)N[C@@H](C)C(N)=O)NC(=O)[C@H]([C@@H](C)O)NC(=O)[C@H](C(C)C)NC(=O)[C@H](CC2CCCCC2)NC(=O)[C@H](CCN)NC(=O)[C@@H](CC(C)C)NC(=O)[C@H](CCCN)NC1=O` (stereo partly drawn) [Compound 2223] the IC50 was 74.8 nM.
Work on `CCNC(=O)[C@H](C)NC(=O)[C@@H]1CSCC(=O)N[C@@H](CN)C(=O)N[C@@H](Cc2ccc(OCC(=O)O)cc2)C(=O)N[C@@H](CC(=O)O)C(=O)N[C@@H](Cc2cccc(C)c2)C(=O)N[C@@H](C(C)C)C(=O)N[C@@H](Cc2ccc(-c3ccccc3)cc2)C(=O)N[C@@H](CCCNC(N)=O)C(=O)N[C@@H](CCCN)C(=O)N[C@H](CC(C)C)C(=O)N[C@@H](CCN)C(=O)N[C@@H](CC2CCCCC2)C(=O)N[C@@H](C(C)C)C(=O)N[C@@H](CN)C(=O)N1` [Compound 2015] ({CH2CO}-[Dap]Y(Carboxymethyl)D[Phe(3-Me)]V[Bip][Cit][Orn][dL][Dab][Cha]V[Dap]CA-NHEt; thioether N-14) yielded an IC50 of 10.5 nM.
In the case of `CCC(C)[C@@H]1NC(=O)[C@H](Cc2ccc(-c3ccccc3)cc2)NC(=O)[C@H](C(C)C)NC(=O)[C@H](Cc2ccc(F)c(C)c2)NC(=O)[C@H](CC(=O)O)NC(=O)[C@H](Cc2ccc(OCC(=O)O)cc2)NC(=O)[C@H](CN)NC(=O)CSC[C@@H](C(=O)N[C@@H](C)C(N)=O)NC(=O)[C@H]([C@@H](C)O)NC(=O)[C@H](C(C)C)NC(=O)[C@H](CC2CCCCC2)NC(=O)[C@H](CCN)NC(=O)[C@@H](CC(C)C)NC(=O)[C@H](CCCN)NC1=O` (stereo partly drawn) [Compound 2244], the IC50 is reported as 32.9 nM.
`CC(C)C[C@H]1NC(=O)[C@H](CCCN)NC(=O)[C@H](CCC(=O)O)NC(=O)[C@H](Cc2ccc(-c3ccccc3)cc2)NC(=O)[C@H](C(C)C)NC(=O)[C@H](Cc2c[nH]c3ccccc23)NC(=O)[C@H](CC(=O)O)NC(=O)[C@H](Cc2ccc(OCC(=O)O)cc2)NC(=O)[C@H](CN)NC(=O)CSC[C@@H](C(=O)N[C@@H](C)C(N)=O)NC(=O)[C@H]([C@@H](C)O)NC(=O)[C@H](C(C)C)NC(=O)[C@H](CC2CCCCC2)NC(=O)[C@H]([C@@H](C)O)NC1=O` [Compound 1517] ({CH2CO}-[Dap]Y(Carboxymethyl)DWV[Bip]E[Orn][dL]T[Cha]VTCA-NH2; thioether N-14) was tested, and the IC50 was 34.2 nM.
For `CCCC[C@H]1NC(=O)[C@H](CCCN)NC(=O)[C@H]([C@@H](C)CC)NC(=O)[C@H](Cc2ccc(-c3ccccc3)cc2)NC(=O)[C@H](C(C)C)NC(=O)[C@H](Cc2c[nH]c3ccccc23)NC(=O)[C@H](CC(=O)O)NC(=O)[C@H](Cc2ccncc2)NC(=O)[C@H](Cc2ccc(OCC(=O)O)cc2)NC(=O)CSC[C@@H](C(=O)N[C@@H](C)C(N)=O)NC(=O)[C@H]([C@@H](C)O)NC(=O)[C@H](C(C)C)NC(=O)[C@H](CC2CCCCC2)NC(=O)[C@H](CCN)NC1=O` [Compound 1710] ({CH2CO}-Y(Carboxymethyl)[4Pal]DWV[Bip]I[Orn][dNle][Dab][Cha]VTCA-NH2; thioether N-14), the IC50 was 33.9 nM.
`C#CC[C@H](NC(=O)[C@H](CCN)NC(=O)[C@@H]1CSCC(=O)N[C@@H](CN)C(=O)N[C@@H](Cc2ccc(C(=O)O)cc2)C(=O)N[C@@H](CC(=O)O)C(=O)N[C@@H](Cc2cccc(C)c2)C(=O)N[C@@H](Cc2ccc(C(=O)O)cc2)C(=O)N[C@@H](Cc2ccc(-c3ccccc3)cc2)C(=O)N[C@@H](Cc2ccc(C(=O)O)cc2)C(=O)N[C@@H](CCCN)C(=O)N[C@H](CC(C)C)C(=O)N[C@@H](CCN)C(=O)N[C@@H](CC2CCCCC2)C(=O)N[C@@H](C(C)(C)O)C(=O)N[C@@H](Cc2cnc[nH]2)C(=O)N1)C(N)=O` [Compound 1848] ({CH2CO}-[Dap][Phe(4-COOH)]D[Phe(3-Me)][Phe(4-COOH)][Bip][Phe(4-COOH)][Orn][dL][Dab][Cha][Val(3-OH)]HC[Dab][Pra]-NH2; thioether N-14) was tested, and the IC50 was 8.3 nM.
Molecule `CC(C)C[C@H]1NC(=O)[C@H](CCCN)NC(=O)[C@H](CCC(=O)O)NC(=O)[C@H](Cc2ccc(-c3ccccc3)cc2)NC(=O)[C@H](C(C)C)NC(=O)[C@H](Cc2c[nH]c3ccccc23)NC(=O)[C@H](CC(=O)O)NC(=O)[C@H](Cc2ccc(C#N)cc2)NC(=O)[C@H](Cc2ccc(OCC(=O)O)cc2)NC(=O)CSC[C@@H](C(=O)N[C@@H](C)C(N)=O)NC(=O)[C@H]([C@@H](C)O)NC(=O)[C@H](C(C)C)NC(=O)[C@H](CC2CCCCC2)NC(=O)[C@H](CCN)NC1=O` [Compound 2188] has an IC50 of 24.1 nM.
With `CC(C)C[C@@H]1NC(=O)[C@H](CCN)NC(=O)[C@@H](CC(C)C)NC(=O)[C@@H](CC(C)C)NC(=O)[C@H](C(C)C)NC(=O)[C@H](Cc2ccc(-c3ccccc3)cc2)NC(=O)[C@H](C(C)C)NC(=O)[C@H](Cc2c[nH]c3ccccc23)NC(=O)[C@H](CC(=O)O)NC(=O)[C@H](Cc2ccc(O)cc2)NC(=O)[C@H](CC(N)=O)NC(=O)CSC[C@@H](C(=O)N[C@@H](C)C(N)=O)NC(=O)[C@H]([C@@H](C)O)NC(=O)[C@H](C(C)C)NC1=O` [Compound 1032] ({CH2CO}-NYDWV[Bip]V[dL][dL][Dab]LVTCA-NH2; thioether N-14) the IC50 was 15.5 nM.

Same assay, conditions: read-out: Jurkat HPD1_PDL1 IC50; Jurkat-PD-1 cells, PE-labeled PD-L1-Ig 20 nM final
`CCC(C)[C@@H]1NC(=O)[C@H](Cc2ccc(-c3ccccc3)cc2)NC(=O)[C@H](Cc2c[nH]cn2)NC(=O)[C@H](Cc2c[nH]c3ccccc23)NC(=O)[C@H](CC(=O)O)NC(=O)[C@H](Cc2ccc(OCC(=O)O)cc2)NC(=O)[C@H](C(C)O)NC(=O)CSC[C@@H](C(=O)N[C@@H](CC(N)=O)C(=O)O)NC(=O)[C@H](CO)NC(=O)[C@H](C(C)C)NC(=O)[C@H](CC(C)C)NC(=O)[C@H](CCN)NC(=O)[C@@H](CC(C)C)NC(=O)[C@H](CCCN)NC1=O` (stereo partly drawn) [Compound 2580] ({CH2CO}-[Thr(3ξ)]Y(Carboxymethyl)DWH[Bip][Ile(3ξ)][Orn][dL][Dab]LVSCN-OH; thioether N-14) gave an IC50 of 45 nM.
